molecular target: T1, pY705-STAT3 in PBMC (Homo sapiens, UniProt P40763); assay: MSD-pSTAT-PBMC Assay (pSTAT3, IL-6 stimulated); type: cell-based; conditions: PBMC, compound 3 hrs, then 10 ng/mL IL-6 for 10 min; Table 115; read-out: STAT3
T1 construct: Cryopreserved Peripheral Blood Mononuclear Cells (PBMC) are from AllCells; host or cells: cryopreserved PBMC
Method in brief: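 Thawed human PBMC rested overnight in IMDM/10% FBS, then got compound for 3 hrs before a 10 min cytokine pulse: 1 ng/mL IL-4 for pSTAT6, 10 ng/mL IL-6 for pSTAT3. Lysates went to MSD sandwich capture on total STAT6 or STAT3 with phospho-specific detection. IC50 came from background-subtracted, DMSO-normalized signal.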

T1 sequence (P40763 whole entry): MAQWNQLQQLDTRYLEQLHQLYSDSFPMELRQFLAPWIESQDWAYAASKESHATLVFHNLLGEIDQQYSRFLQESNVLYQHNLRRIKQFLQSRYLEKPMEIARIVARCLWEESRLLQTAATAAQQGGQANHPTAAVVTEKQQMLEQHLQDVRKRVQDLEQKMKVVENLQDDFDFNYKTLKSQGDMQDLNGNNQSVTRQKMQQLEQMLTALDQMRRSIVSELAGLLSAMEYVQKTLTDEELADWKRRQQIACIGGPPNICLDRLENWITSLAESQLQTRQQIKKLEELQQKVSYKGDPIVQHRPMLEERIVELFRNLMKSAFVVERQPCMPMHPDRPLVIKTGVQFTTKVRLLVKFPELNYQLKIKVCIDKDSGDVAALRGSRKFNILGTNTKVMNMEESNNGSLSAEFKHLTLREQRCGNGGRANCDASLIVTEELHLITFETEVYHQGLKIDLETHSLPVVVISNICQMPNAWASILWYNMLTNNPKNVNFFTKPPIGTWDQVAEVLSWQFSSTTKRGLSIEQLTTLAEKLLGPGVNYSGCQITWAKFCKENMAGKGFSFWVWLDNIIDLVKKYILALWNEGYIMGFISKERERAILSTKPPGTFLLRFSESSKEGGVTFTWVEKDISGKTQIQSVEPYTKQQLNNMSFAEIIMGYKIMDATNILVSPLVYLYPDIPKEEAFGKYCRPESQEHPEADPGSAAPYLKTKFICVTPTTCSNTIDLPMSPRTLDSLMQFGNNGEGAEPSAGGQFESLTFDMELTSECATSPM

SMILES	IC50 [µM]
CCCOC(=O)[C@H](C)NP(=O)(Oc1ccccc1)C(F)c1ccc2sc(C(=O)N[C@H]3CCC[C@H]4CC[C@@H](C(=O)N5CC6(C5)OCc5ccncc56)N4C3=O)cc2c1 (stereo partly drawn) [Compound 952, propyl ((fluoro(2-(((3S,6S,9aS)-5-oxo-3-(1′H-spiro [azetidine-3,3′-furo[3,4-c]pyridine]-1-carbonyl)octahydro-1H-pyrrolo[1,2-a]azepin-6-yl)carbamoyl)benzo [b]thiophen-5-yl)methyl) (phenoxy)phosphoryl)-L-alaninate]	0.1 to 1
CCCOC(=O)[C@H](C)NP(=O)(Oc1ccccc1)C(F)c1ccc2sc(C(=O)N[C@H]3CCC[C@H]4CC[C@@H](C(=O)N5CC(c6cc(F)ccc6OC)C5)N4C3=O)cc2c1 (stereo partly drawn) [Compound 957, propyl ((fluoro(2-(((3S,6S,9aS)-3-(3-(5-fluoro-2-methoxyphenyl)azetidine-1-carbonyl)-5-oxooctahydro-1H-pyrrolo[1,2-a]azepin-6-yl)carbamoyl)benzo [b]thiophen-5-yl)methyl)(phenoxy)phosphoryl)-L-alaninate]	> 3
CCCOC(=O)[C@H](C)NP(=O)(Oc1ccccc1)C(F)c1ccc2sc(C(=O)N[C@H]3CCCC[C@H]4CC[C@@H](C(=O)N[C@H]5CN(C(N)=O)C[C@@H]5F)N4C3=O)cc2c1 (stereo partly drawn) [Compound 958, propyl (((2-(((3S,6S,10aS)-3-(((3S,4S)-1-carbamoyl-4-fluoropyrrolidin-3-yl)carbamoyl)-5-oxodeca-hydropyrrolo [1,2-a]azocin-6-yl)carbamoyl)benzo [b]thiophen-5-yl)fluoromethyl) (phenoxy)phosphoryl)-L-alaninate]	1 to 3
COC1(c2cnccc2C)CN(C(=O)[C@@H]2CC[C@@H]3CCC[C@H](NC(=O)c4cc5cc(C(F)(F)P(=O)(OCCSC(=O)CC(C)C)OCCSC(=O)CC(C)C)ccc5s4)C(=O)N32)C1 [Compound 963, S,S′-((((difluoro(2-(((3S,6S,9aS)-3-(3-methoxy-3-(4-methylpyridin-3-yl)azetidine-1-carbonyl)-5-oxooctahydro-1H-pyrrolo[1,2-a]azepin-6-yl)carbamoyl)benzo [b]thiophen-5-yl)methyl)phosphoryl)bis(oxy))bis(ethane-2,1-diyl)) bis(3-methylbutanethioate)]	0.1 to 1
CCCC(=O)SCCOP(=O)(OCCSC(=O)CCC)C(F)(F)c1ccc2sc(C(=O)N[C@H]3CCC[C@H]4CC[C@@H](C(=O)N5CC(c6nncn6C)C5)N4C3=O)cc2c1 [Compound 964, S,S′-((((difluoro(2-(((3S,6S,9aS)-3-(3-(4-methyl-4H-1,2,4-triazol-3-yl)azetidine-1-carbonyl)-5-oxooctahydro-1H-pyrrolo[1,2-a]azepin-6-yl)carbamoyl)benzo [b]thiophen-5-yl)methyl)phosphoryl)bis(oxy))bis(ethane-2,1-diyl)) dibutanethioate]	0.1 to 1
CC(C)OC(=O)OCOP(=O)(Cc1ccc2[nH]c(C(=O)N[C@H]3CCC[C@H]4CC[C@@H](C(=O)N5CC(c6cccnc6)C5)N4C3=O)cc2c1)OCOC(=O)OC(C)C [Compound 965, diisopropyl (((((2-(((3S,6S,9aS)-5-oxo-3-(3-(pyridin-3-yl)azetidine-1-carbonyl)octahydro-1H-pyrrolo[1,2-a]azepin-6-yl)carbamoyl)-1H-indol-5-yl)methyl)phosphoryl)bis(oxy))bis (methylene)) bis(carbonate)]	0.1 to 1
CC(C)CC(=O)SCCOP(=O)(OCCSC(=O)CC(C)C)C(F)(F)c1ccc2sc(C(=O)N[C@H]3CCC[C@H]4CC[C@@H](C(=O)N5CC(c6nncn6C)C5)N4C3=O)cc2c1 [Compound 966, S,S′-((((difluoro(2-(((3S,6S,9aS)-3-(3-(4-methyl-4H-1,2,4-triazol-3-yl)azetidine-1-carbonyl)-5-oxooctahydro-1H-pyrrolo[1,2-a]azepin-6-yl)carbamoyl)benzo [b]thiophen-5-yl)methyl)phosphoryl)bis(oxy))bis(ethane-2,1-diyl)) bis(3-methylbutanethioate)]	< 0.1
Cn1cnnc1C1CN(C(=O)[C@@H]2CC[C@@H]3CCC[C@H](NC(=O)c4cc5cc(C(F)(F)P(=O)(OCCSC(=O)C(C)(C)C)OCCSC(=O)C(C)(C)C)ccc5s4)C(=O)N32)C1 [Compound 967, S,S′-((((difluoro(2-(((3S,6S,9aS)-3-(3-(4-methyl-4H-1,2,4-triazol-3-yl)azetidine-1-carbonyl)-5-oxooctahydro-1H-pyrrolo[1,2-a]azepin-6-yl)carbamoyl)benzo [b]thiophen-5-yl)methyl)phosphoryl)bis(oxy))bis(ethane-2,1-diyl)) bis(2,2-dimethyl-propanethioate)]	< 0.1
Cc1ccncc1C1CN(C(=O)[C@@H]2CC[C@@H]3CCC[C@H](NC(=O)c4cc5cc(C(F)(F)P(=O)(OCCSC(=O)C(C)(C)C)OCCSC(=O)C(C)(C)C)ccc5s4)C(=O)N32)C1 [Compound 968, S,S′-((((difluoro(2-(((3S,6S,9aS)-3-(3-(4-methylpyridin-3-yl)azetidine-1-carbonyl)-5-oxooctahydro-1H-pyrrolo[1,2-a]azepin-6-yl)carbamoyl)benzo [b]thiophen-5-yl)methyl)phosphoryl)bis(oxy))bis(ethane-2,1-diyl))bis(2,2-dimethyl-propanethioate)]	< 0.1
CCCCOC(=O)[C@@H]1CCCN1P(=O)(Oc1ccccc1)C(F)(F)c1ccc2sc(C(=O)N[C@H]3CCC[C@H]4CC[C@@H](C(=O)N5CC(c6cccnc6)C5)N4C3=O)cc2c1 (stereo partly drawn) [Compound 969, butyl ((difluoro(2-(((3S,6S,9aS)-5-oxo-3-(3-(pyridin-3-yl)azetidine-1-carbonyl)octahydro-1H-pyrrolo[1,2-a]azepin-6-yl)carbamoyl)benzo [b]thiophen-5-yl)methyl)(phenoxy)phosphoryl)-L-prolinate]	> 3
O=C(SCCOP(=O)(OCCSC(=O)c1ccccc1)C(F)(F)c1ccc2sc(C(=O)N[C@H]3CCC[C@H]4CC[C@@H](C(=O)N5CC(c6cccnc6)C5)N4C3=O)cc2c1)c1ccccc1 [Compound 970, S,S′-((((difluoro(2-(((3S,6S,9aS)-5-oxo-3-(3-(pyridin-3-yl)azetidine-1-carbonyl)octahydro-1H-pyrrolo[1,2-a]azepin-6-yl)carbamoyl)benzo [b]thiophen-5-yl)methyl)-phosphoryl)bis(oxy))bis(ethane-2,1-diyl)) dibenzothioate]	< 0.1
CCCCOC(=O)[C@H](C)NP(=O)(Oc1cccc2ccccc12)C(F)(F)c1ccc2sc(C(=O)N[C@H]3CCC[C@H]4CC[C@@H](C(=O)N5CC(c6cccnc6)C5)N4C3=O)cc2c1 (stereo partly drawn) [Compound 971, butyl ((difluoro(2-(((3S,6S,9aS)-5-oxo-3-(3-(pyridin-3-yl)azetidine-1-carbonyl)octahydro-1H-pyrrolo[1,2-a]azepin-6-yl)carbamoyl)benzo [b]thiophen-5-yl)methyl) (naphthalen-1-yloxy)phosphoryl)-L-alaninate]	1 to 3
CC(C)OC(=O)[C@H](C)NP(=O)(Oc1ccccc1)C(F)c1ccc2sc(C(=O)N[C@H]3CCC[C@H]4CC[C@@H](C(=O)N5CC(c6cnccc6F)C5)N4C3=O)cc2c1 (stereo partly drawn) [Compound 972, isopropyl ((fluoro(2-(((3S,6S,9aS)-3-(3-(4-fluoropyridin-3-yl)azetidine-1-carbonyl)-5-oxooctahydro-1H-pyrrolo[1,2-a]azepin-6-yl)carbamoyl)benzo [b]thiophen-5-yl)methyl) (phenoxy)phosphoryl)-L-alaninate]	< 0.1
CCCOC(=O)[C@H](C)NP(=O)(Oc1ccccc1)C(F)c1ccc2sc(C(=O)N[C@H]3CCC[C@H]4CC[C@@H](C(=O)N5CC(c6cnccc6O)C5)N4C3=O)cc2c1 (stereo partly drawn) [Compound 974, propyl ((fluoro(2-(((3S,6S,9aS)-3-(3-(4-hydroxypyridin-3-yl)azetidine-1-carbonyl)-5-oxooctahydro-1H-pyrrolo[1,2-a]azepin-6-yl)carbamoyl)benzo [b]thiophen-5-yl)methyl)(phenoxy)phosphoryl)-L-alaninate]	0.1 to 1
CCCOC(=O)[C@H](C)NP(=O)(Cc1ccc2sc(C(=O)N[C@H]3CCC[C@H]4CC[C@@H](C(=O)N5CC(c6cnccc6O)C5)N4C3=O)cc2c1)Oc1ccccc1 (stereo partly drawn) [Compound 975, propyl (((2-(((3S,6S,9aS)-3-(3-(4-hydroxypyridin-3-yl)azetidine-1-carbonyl)-5-oxooctahydro-1H-pyrrolo[1,2-a]azepin-6-yl)carbamoyl)benzo [b]thiophen-5-yl)methyl)(phenoxy)phosphoryl)-L-alaninate]	< 0.1
CCCOC(=O)[C@H](C)NP(=O)(Cc1ccc2sc(C(=O)N[C@H]3CCC[C@H]4CC[C@@H](C(=O)N5CC(c6c(F)ccnc6C)C5)N4C3=O)cc2c1)Oc1ccccc1 (stereo partly drawn) [Compound 978, propyl (((2-(((3S,6S,9aS)-3-(3-(4-fluoro-2-methylpyridin-3-yl)azetidine-1-carbonyl)-5-oxooctahydro-1H-pyrrolo[1,2-a]azepin-6-yl)carbamoyl)benzo [b]thiophen-5-yl)methyl)(phenoxy)phosphoryl)-L-alaninate]	0.1 to 1
CCCOC(=O)[C@H](C)NP(=O)(Cc1ccc2sc(C(=O)N[C@H]3CCC[C@H]4CC[C@@H](C(=O)N5CC(c6cn(C)ccc6=O)C5)N4C3=O)cc2c1)Oc1ccccc1 (stereo partly drawn) [Compound 979, propyl (((2-(((3S,6S,9aS)-3-(3-(1-methyl-4-oxo-1,4-dihydropyridin-3-yl)azetidine-1-carbonyl)-5-oxooctahydro-1H-pyrrolo[1,2-a]azepin-6-yl)carbamoyl)benzo [b]thiophen-5-yl)methyl)(phenoxy)phosphoryl)-L-alaninate]	> 3
CCCOC(=O)[C@H](C)NP(=O)(Cc1ccc2sc(C(=O)N[C@H]3CCC[C@H]4CC[C@@H](C(=O)N5CC(c6c(OC)ccnc6F)C5)N4C3=O)cc2c1)Oc1ccccc1 (stereo partly drawn) [Compound 980, propyl (((2-(((3S,6S,9aS)-3-(3-(2-fluoro-4-methoxypyridin-3-yl)azetidine-1-carbonyl)-5-oxooctahydro-1H-pyrrolo[1,2-a]azepin-6-yl)carbamoyl)benzo [b]thiophen-5-yl)methyl)(phenoxy)phosphoryl)-L-alaninate]	1 to 3

Source: patent US20250215029A1 (Recludix Pharma, Inc., priority 2022, published 2025)
